The results in this text go back to patent US9795590B2, “Anti-inflammatory agents as virostatic compounds” (Panoptes Pharma GmbH, priority 2014, dated 2017).

Molecules are shown by their SMILES. A value given as a limit tells only on which side of the number the result lay.

Data set [1] deals with DHODH (human) (Homo sapiens, UniProt Q02127). Nature of the data set: DHODH in vitro enzymatic activity assay (human). The data set is classed as biochemical. The method, then:
(§1) Pharmacological parameters of compound 1 (Table 2) were determined by standard procedures, i.e. DHODH and kinase activity assays were performed according to Davis et al., (1996. The immunosuppressive metabolite of leflunomide is a potent inhibitor of human dihydroorotate dehydrogenase.

In data set [2] the test system is VZV, varicella zoster virus, strain Oka. Nature of the data set: antiviral assay VZV in primary human fibroblasts. The conditions noted are these: Human alphaherpesvirus 3, Fibroblast, read-out: IC50 of virus replication VZV. The format is cell-based. On the procedure: (§2) Antiviral assays were performed as described in the literature (Marschall, M. et al., 2000. Antimicrob. Agents Chemother. 44, 1588-1597; Marschall M. et al., 2012. Antimicrob. Agents Chemother. 56, 1135-1137; Kindsmüller et al., 2009. J. Virol. 83, 9045-9056; Rechter et al., 2006. Antiviral Res. 72, 197-206).

The test system of data set [3] is HSV-1, herpes simplex virus type 1, strain 166v VP22-GFP. Nature of the data set: GFP-based reporter assay HSV-1 in Vero. The data set is classed as cell-based. To be noted: Human alphaherpesvirus 1, Vero, read-out: IC50 of virus replication HSV-1. On the procedure: as §2
(In general: A reporter such as luciferase makes a cellular process visible.)

For data set [4], the system named is HAdV A31. Nature of the data set: virus yield assay HAdV A31 in A549. The data set is classed as cell-based, human adenovirus. To be noted: MOI 20, supernatant transfer 4 d post-infection, n=1. On the procedure: (§3) A549 cells were infected at MOI 20 and continuously treated with the given concentrations of compound 1. Virus-containing supernatants were transferred to uninfected cells at 4 d^1, 6 d^2 or 2 d^3 post-infection, respectively, and used for quantitation of infectious virus. Percentages of virus-positive cells per total cells were determined on the basis of indirect immunofluorescence staining (monoclonal anti-adenovirus hexon protein antibody; Abcam B025-AD51/ab7428) by microscopic countings: n=4 for C02, C05, D19, D37; n=3 for B03k, E04k; n=1 for A31, B03, D08, E04.

The subject of data set [5] is HHV-6, human herpesvirus type 6A, strain U1102. Nature of the data set: antiviral assay HHV-6 in J-JHAN. To be noted: n = 8, read-out: IC50 of virus replication HHV-6. The format is cell-based. The method, then:
as §2

Data set [6] deals with HAdV E04k. Nature of the data set: virus yield assay HAdV E04k (clinical isolate) in A549. The data set is classed as cell-based, human adenovirus. To be noted: MOI 20, supernatant transfer 6 d post-infection, n=3. On the procedure: as §3
The target in data set [7] is AKT-1/-2/-3. Nature of the data set: kinase activity assay AKT. The data set is classed as biochemical. The conditions noted are these: read-out: Inhibitory activity in vitro (IC50) AKT-1/-2/-3. The method, then: as §1
In data set [8] the test system is Vaccina (vaccine virus, strain IHD-5). Nature of the data set: antiviral assay vaccinia virus in primary human fibroblasts. The format is cell-based. The conditions noted are these: Orthopoxvirus vaccinia, Fibroblast, read-out: IC50 of virus replication Vaccina. On the procedure: as §2
Data set [9] has as its system J-JHAN. Nature of the data set: drug-induced cytotoxicity, microscopic evaluation, J-JHAN. The format is cell-based. The conditions noted are these: HHV-6 experiment.
Data set [10] concerns HAdV D37. Nature of the data set: virus yield assay HAdV D37 in A549. The data set is classed as cell-based, human adenovirus. The conditions noted are these: MOI 20, supernatant transfer 6 d post-infection, n=4. On the procedure:
as §3

Data set [11] relates to HAdV B03. Nature of the data set: virus yield assay HAdV B03 in A549. The data set is classed as cell-based, human adenovirus. To be noted: MOI 20, supernatant transfer 6 d post-infection, n=1. The method, then: as §3
Data set [12] concerns 293T (T81GFP). Nature of the data set: drug-induced cytotoxicity, microscopic evaluation, 293T (T81GFP). To be noted: EBV experiment. The format is cell-based.
The test system of data set [13] is HAdV C02. Nature of the data set: virus yield assay HAdV C02 in A549. The data set is classed as cell-based, human adenovirus. To be noted: MOI 20, supernatant transfer 2 d post-infection, n=4. On the procedure: as §3
Data set [14] relates to EBV, Epstein-Barr virus, strain B95-8. Nature of the data set: antiviral assay EBV in 293T (T81GFP). The format is cell-based. To be noted: human gammaherpesvirus 4, n = 4, read-out: IC50 of virus replication EBV. The method, then: as §2
The target of data set [15] is JAK-1/-2/-3. Nature of the data set: kinase activity assay JAK. The data set is classed as biochemical. To be noted: read-out: Inhibitory activity in vitro (IC50) JAK-1/-2/-3. On the procedure:
as §1

In data set [16] the target is PI3K-α/-β/-γ/-δ. Nature of the data set: kinase activity assay PI3K. The format is biochemical. To be noted: read-out: Inhibitory activity in vitro (IC50) PI3K-α/-β/-γ/-δ. The method, then: as §1
The test system of data set [17] is HAdV C05. Nature of the data set: virus yield assay HAdV C05 in A549. The format is cell-based, human adenovirus. To be noted: MOI 20, supernatant transfer 2 d post-infection, n=4. The method, then:
as §3

Data set [18] deals with HAdV D19. Nature of the data set: virus yield assay HAdV D19 in A549. The format is cell-based, human adenovirus. The conditions noted are these: MOI 20, supernatant transfer 4 d post-infection, n=4. On the procedure:
as §3

Data set [19] deals with Human adenovirus type 2 (HAdV-2). Nature of the data set: plaque reduction assay HAdV-2 in A549. The data set is classed as cell-based. To be noted: Human mastadenovirus C, A549, n = 8, read-out: IC50 antiviral activity against HAdV-2. On the procedure: as §2
On the technique in general: In a plaque reduction assay, fewer plaques than in the control indicate reduced infectivity or spread.

Data set [20] concerns HSV-2, herpes simplex virus type 2, isolate 01-6332. Nature of the data set: antiviral assay HSV-2 in Vero. The data set is classed as cell-based. The conditions noted are these: Human alphaherpesvirus 2, n = 4, read-out: IC50 of virus replication HSV-2. On the procedure: as §2
Data set [21] has as its system HAdV B03k. Nature of the data set: virus yield assay HAdV B03k (clinical isolate) in A549. The data set is classed as cell-based, human adenovirus. To be noted: MOI 20, supernatant transfer 6 d post-infection, n=3. On the procedure:
as §3

Data set [22] relates to HAdV D08. Nature of the data set: virus yield assay HAdV D08 in A549. The data set is classed as cell-based, human adenovirus. The conditions noted are these: MOI 20, supernatant transfer 4 d post-infection, n=1. On the procedure:
as §3

Data set [23] deals with A549. Nature of the data set: drug-induced cytotoxicity, microscopic evaluation, A549. The format is cell-based. To be noted: HAdV-2 experiment, A549, 1-10 μM.
The target of data set [24] is DHODH (mouse) (Mus musculus, UniProt O35435). Nature of the data set: DHODH in vitro enzymatic activity assay (mouse). To be noted: read-out: Inhibitory activity in vitro (IC50) DHODH (mouse). The format is biochemical.
In data set [25] the test system is Vero. Nature of the data set: drug-induced cytotoxicity, microscopic evaluation, Vero. The format is cell-based.
In data set [26] the test system is primary human fibroblasts. Nature of the data set: drug-induced cytotoxicity, microscopic evaluation, primary human fibroblasts. The format is cell-based.
Data set [27] concerns HAdV E04. Nature of the data set: virus yield assay HAdV E04 in A549. To be noted: MOI 20, supernatant transfer 6 d post-infection, n=1. The format is cell-based, human adenovirus. On the procedure: as §3

Chain of DHODH (human) (Q02127 whole entry): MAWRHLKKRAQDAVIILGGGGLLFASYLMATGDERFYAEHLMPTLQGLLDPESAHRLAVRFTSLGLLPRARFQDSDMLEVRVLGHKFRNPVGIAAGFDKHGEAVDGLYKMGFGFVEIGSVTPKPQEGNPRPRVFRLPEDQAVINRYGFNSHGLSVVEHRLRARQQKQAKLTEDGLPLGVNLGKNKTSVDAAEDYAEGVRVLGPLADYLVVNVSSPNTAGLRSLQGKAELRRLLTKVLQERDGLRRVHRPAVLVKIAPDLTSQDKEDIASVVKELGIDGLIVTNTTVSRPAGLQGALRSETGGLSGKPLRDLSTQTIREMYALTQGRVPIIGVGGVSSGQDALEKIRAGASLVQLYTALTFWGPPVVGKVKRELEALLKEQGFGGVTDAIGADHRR
Chain of DHODH (mouse) (O35435 whole entry): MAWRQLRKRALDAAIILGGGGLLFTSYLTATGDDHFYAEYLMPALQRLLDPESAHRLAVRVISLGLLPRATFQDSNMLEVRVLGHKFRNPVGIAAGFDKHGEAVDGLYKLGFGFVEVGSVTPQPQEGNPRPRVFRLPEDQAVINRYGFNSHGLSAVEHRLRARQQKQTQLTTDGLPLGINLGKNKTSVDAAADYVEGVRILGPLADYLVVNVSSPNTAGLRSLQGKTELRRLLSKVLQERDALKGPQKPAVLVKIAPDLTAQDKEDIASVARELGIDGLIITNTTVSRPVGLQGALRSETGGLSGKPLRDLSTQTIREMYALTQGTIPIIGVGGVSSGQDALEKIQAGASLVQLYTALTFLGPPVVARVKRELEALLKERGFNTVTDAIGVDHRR

For the molecule `Nc1nc2c(ncn2COC(CO)CO)c(=O)[nH]1` [GCV, reference compound], the DHODH activity remaining in data set [1] (at 10 μM, duplicate testings) turned out to be 100%.

As to `O=C(Nc1c(F)c(F)c(-c2cccc(OC(F)(F)F)c2)c(F)c1F)c1ccsc1C(=O)O` [compound 1, 3-(2,3,5,6-tetrafluoro-3′-trifluoromethoxy-biphenyl-4-ylcarbamoyl)-thiophene-2-carboxylic acid], the IC50 was 3550 ± 260 nM in data set [2]; above 10000 nM in data set [3]; 1550 ± 310 nM in data set [5]; above 15000 nM in [7]; 9850 ± 6610 nM in data set [8]; above 10000 nM in data set [14]. Moreover, the IC50 was above 10000 nM in data set [15]; above 1000 nM in data set [16]; 560 ± 20 nM in data set [19]; above 10000 nM in data set [20]; 3.2 ± 0.8 nM in [24]; 1.5 ± 0.2 nM in data set [1] (purified human DHODH, read-out: Inhibitory activity in vitro (IC50) DHODH (human)). Besides, the “virus-positive cells (0 μM = 100), HAdV A31” value in data set [4] (0.37 μM) was determined as 72%; in [4] (1.11 μM) it was 3%. For the same molecule, the results for the “virus-positive cells (0 μM = 100), HAdV E04k” value in data set [6] (0.37 μM) and in data set [6] (1.11 μM) were 115% and 9%, respectively. Also, the “Cytotoxicity [1-10 μM]” value in [9] was “none”; in [12], “none”; in data set [23] it was “None”; in data set [23] (listed as Compound 1), “none”; in [25] (HSV-1 experiment) it was “none”; in data set [25] (HSV-2 experiment), “none”. The “Cytotoxicity [1-10 μM]” value in [26] (VZV experiment) and in [26] (Vaccina experiment) was “none” throughout. Moreover, the “virus-positive cells (0 μM = 100), HAdV D37” value is recorded as 96% in data set [10] (0.37 μM) and 3% in data set [10] (1.11 μM). In addition, the entries for the “virus-positive cells (0 μM = 100), HAdV B03” value in [11] (0.37 μM) and in [11] (1.11 μM) were 127% and 29%, respectively. Moreover, the results for the “virus-positive cells (0 μM = 100), HAdV C02” value in data set [13] (0.37 μM) and in data set [13] (1.11 μM) were 100% and 9%, respectively. For the same molecule, the “virus-positive cells (0 μM = 100), HAdV C05” value in data set [17] (0.37 μM) was determined as 82%; in data set [17] (1.11 μM), 6%. Moreover, the results for the “virus-positive cells (0 μM = 100), HAdV D19” value in data set [18] (0.37 μM) and in data set [18] (1.11 μM) were 81% and 4%, respectively. Further, the “virus-positive cells (0 μM = 100), HAdV B03k” value in data set [21] (0.37 μM) came out at 70%; in [21] (1.11 μM), 11%. Moreover, the “virus-positive cells (0 μM = 100), HAdV D08” value in data set [22] (0.37 μM) stood at 6%; in data set [22] (1.11 μM) it was 0%. The results for the “virus-positive cells (0 μM = 100), HAdV E04” value in data set [27] (0.37 μM) and in data set [27] (1.11 μM) were 128% and 23%, respectively.
